This note sets out measurements from ChEMBL document CHEMBL1134996, “Non-peptide alpha(v)beta(3) antagonists. Part 5: identification of potent RGD mimetics incorporating 2-aryl beta-amino acids as aspartic acid replacements” (Bioorg Med Chem Lett, 2002).

In general, IC50 refers to the point on the concentration scale where inhibition reaches its midpoint. Low readings indicate greater potency in that assay, high ones weaker potency in that assay. As usually defined, the bioavailability is the share of a dose that reaches the circulation, judged against a reference dose that is usually intravenous. High values mean good availability, low ones poor availability.

The target of one data set is Integrin alpha-V/beta-3 (Homo sapiens, UniProt P05106+P06756). Put plainly: Inhibition of binding to human integrin receptor alpha V beta3. The format is protein-complex assay.
Sequence of Integrin alpha-V/beta-3 (P05106 27-788 limits assumed): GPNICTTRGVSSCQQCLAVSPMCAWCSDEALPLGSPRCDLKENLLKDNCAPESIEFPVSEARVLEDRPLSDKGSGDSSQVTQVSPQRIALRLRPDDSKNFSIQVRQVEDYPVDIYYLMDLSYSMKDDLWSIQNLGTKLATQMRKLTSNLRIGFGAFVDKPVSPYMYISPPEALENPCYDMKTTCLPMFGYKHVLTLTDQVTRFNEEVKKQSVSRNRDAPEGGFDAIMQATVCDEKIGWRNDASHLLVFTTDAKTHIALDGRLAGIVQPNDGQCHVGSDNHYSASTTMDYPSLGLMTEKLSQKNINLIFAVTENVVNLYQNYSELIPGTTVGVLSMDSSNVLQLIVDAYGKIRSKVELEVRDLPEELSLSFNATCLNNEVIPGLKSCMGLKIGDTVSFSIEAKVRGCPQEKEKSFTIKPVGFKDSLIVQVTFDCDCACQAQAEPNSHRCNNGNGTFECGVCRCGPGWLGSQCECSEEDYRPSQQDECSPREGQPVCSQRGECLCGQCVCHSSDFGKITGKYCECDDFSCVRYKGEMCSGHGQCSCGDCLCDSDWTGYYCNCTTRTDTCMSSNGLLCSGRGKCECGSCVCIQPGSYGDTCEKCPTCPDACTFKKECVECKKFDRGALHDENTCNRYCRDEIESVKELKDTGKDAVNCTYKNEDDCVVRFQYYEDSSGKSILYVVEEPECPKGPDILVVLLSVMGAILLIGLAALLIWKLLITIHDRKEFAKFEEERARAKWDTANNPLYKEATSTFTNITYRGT
Sequence of Integrin alpha-V/beta-3 (P06756 31-889 limits assumed): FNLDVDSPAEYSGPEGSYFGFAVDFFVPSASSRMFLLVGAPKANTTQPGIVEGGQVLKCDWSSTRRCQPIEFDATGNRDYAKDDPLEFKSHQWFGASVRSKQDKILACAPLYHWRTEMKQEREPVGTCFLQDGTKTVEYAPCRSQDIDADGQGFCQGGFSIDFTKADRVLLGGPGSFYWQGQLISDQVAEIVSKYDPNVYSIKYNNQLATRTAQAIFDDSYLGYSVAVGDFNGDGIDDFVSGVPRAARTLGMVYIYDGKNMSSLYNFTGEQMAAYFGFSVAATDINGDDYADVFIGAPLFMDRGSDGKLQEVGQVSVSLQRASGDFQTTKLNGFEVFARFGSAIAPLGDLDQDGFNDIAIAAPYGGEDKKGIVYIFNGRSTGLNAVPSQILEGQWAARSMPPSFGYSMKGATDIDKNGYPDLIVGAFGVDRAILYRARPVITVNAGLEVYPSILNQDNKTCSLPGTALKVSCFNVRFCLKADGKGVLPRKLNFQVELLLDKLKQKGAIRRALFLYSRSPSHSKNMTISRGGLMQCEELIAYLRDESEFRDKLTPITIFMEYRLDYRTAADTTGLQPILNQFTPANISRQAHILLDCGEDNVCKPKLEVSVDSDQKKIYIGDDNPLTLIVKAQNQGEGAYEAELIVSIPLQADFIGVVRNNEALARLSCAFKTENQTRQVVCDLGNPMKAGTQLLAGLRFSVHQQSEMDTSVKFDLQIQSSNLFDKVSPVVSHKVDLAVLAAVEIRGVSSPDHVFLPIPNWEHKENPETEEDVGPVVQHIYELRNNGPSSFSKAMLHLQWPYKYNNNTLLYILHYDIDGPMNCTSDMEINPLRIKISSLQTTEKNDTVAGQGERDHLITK
Sequence of Integrin alpha-V/beta-3 (P06756 891-1048 limits assumed): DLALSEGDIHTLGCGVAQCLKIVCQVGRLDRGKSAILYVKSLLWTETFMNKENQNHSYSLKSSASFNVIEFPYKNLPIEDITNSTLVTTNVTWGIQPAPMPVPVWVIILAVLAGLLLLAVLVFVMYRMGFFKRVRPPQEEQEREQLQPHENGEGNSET
Data set [1] in a line: Bioavailability in dog. Particulars: in vivo. Type of data set: ADME, organism-based, Canis lupus familiaris.
Data set [2] in a line: Clearance after oral and iv dosing in dogs. Type of data set: ADME, organism-based, Canis lupus familiaris. As to conditions: dog, in vivo, read-out: CI.

Compound `O=C(CCCCc1ccc2c(n1)NCCC2)NCC(C(=O)O)c1cccc(F)c1` (stereo not given) had a 50% inhibitory concentration (IC50) on Integrin alpha-V/beta-3 of 10.9 nM.
In turn, `CN(CC(C(=O)O)c1ccc2c(c1)OCC2)C(=O)CCCCc1ccc2c(n1)NCCC2` (stereo not given) returned an IC50 at Integrin alpha-V/beta-3 of 0.74 nM. This IC50 lies about 15-fold lower than the previous one.
`O=C(CCC1CCc2cc3c(nc2C1)NCCC3)NCC(C(=O)O)c1ccc2c(c1)OCC2` (stereo not given) displayed an IC50 on Integrin alpha-V/beta-3 of 0.72 nM. This compound displayed a bioavailability in data set [1] of 1.1%. In data set [2], the clearance was 18.9 mL/min/kg.
`O=C(CCCCc1nc2c(cc1C1CC1)CCCN2)NCC(C(=O)O)c1ccc2c(c1)OCC2` (stereo not given) gave an IC50 on Integrin alpha-V/beta-3 of 0.29 nM. Also, in data set [1], the bioavailability turned out to be 40%. In addition, the clearance in data set [2] is 13.7 mL/min/kg.
On Integrin alpha-V/beta-3, `O=C(CCCCc1ccc2c(n1)NCCC2)NCC(C(=O)O)c1cnc2ccccc2c1` (stereo not given) yielded a half-inhibitory concentration (IC50) of 0.82 nM. This lies in the sub-nanomolar range.
`CN(CC(C(=O)O)c1ccc2c(c1)OCC2)C(=O)CCC1CCc2cc3c(nc2C1)NCCC3` (stereo not given) had an IC50 on Integrin alpha-V/beta-3 of 0.35 nM. This compound yielded a bioavailability in data set [1] of 18%. The clearance in data set [2] turned out to be 10.3 mL/min/kg.
For the compound `O=C(O)C[C@H](NC(=O)CCCCc1ccc2c(n1)NCCC2)c1ccccc1`, the 50% inhibitory concentration (IC50) at Integrin alpha-V/beta-3 worked out at 84 nM. In other words, the double-digit nanomolar range.
On the same count and under the same terms, as for `CN(CC(C(=O)O)c1ccc2c(c1)OCC2)C(=O)CCCCc1nc2c(cc1C1CC1)CCCN2` (stereo not given), the figure is 0.49 nM.
On to `O=C(CCCCc1ccc2c(n1)NCCC2)NCC(C(=O)O)c1ccc2c(c1)OCC2` (stereo not given), for which, at Integrin alpha-V/beta-3, the 50% inhibitory concentration (IC50) turned out to be 1.01 nM. Further, in data set [1], the bioavailability came out at 47%. Besides, the clearance in data set [2] turned out to be 6.6 mL/min/kg.
On Integrin alpha-V/beta-3, `O=C(CCCCc1ccc2c(n1)NCCC2)NCC(C(=O)O)c1ccccc1` (stereo not given) displayed an IC50 of 57.4 nM.
In turn, `O=C(O)C[C@H](NC(=O)CCCCc1ccc2c(n1)NCCC2)c1cnc2ccccc2c1` returned a half-maximal inhibitory concentration (IC50) on Integrin alpha-V/beta-3 of 1.07 nM.
For the compound `O=C(O)C[C@H](NC(=O)CCCCc1ccc2c(n1)NCCC2)c1ccc2c(c1)OCC2`, the clearance in data set [2] came to 2 mL/min/kg.
